Laboratory results from patent publication US20080293749A1, “Pyrrolidine(thi)ones Substituted by Heterocyclic Substituents in The 3-Position” (Gruenenthal GmbH, priority 2005, published 2008).
Converted amounts (≈) assume the structure as drawn.

Key:
[1] = tested on: IL-10 production of LPS-activated monocytes; experiment: Increase in IL-10 production of LPS-activated human monocytes (sandwich ELISA of culture supernatants); type: cell-based; settings: human CD14-positive monocytes, 1 h preincubation with test substance, 10 μg/ml LPS from E. coli, 24 hours; for EC200: Monocyte
Description: (§1) Stimulation of human monocytes with lipopolysaccharide for secretion of IL-10 and IL-12:
(§2) Human monocytes were isolated from peripheral blood mononuclear cells (PBMC), which were obtained from heparinized whole blood by means of a Ficoll density gradient centrifugation. For this, the PBMC were incubated with a monoclonal antibody which is directed against the monocyte-specific surface molecule CD14 and to which superparamagnetic microbeads (Miltenyi Biotech, Bergisch Gladbach) are coupled. For positive selection of the labelled monocytes from the cell mixture of the PBMC, the entire cell suspension was applied to a column with a ferromagnetic carrier matrix and this was placed in a magnetic field. The cells loaded with microbeads were thereby bound to the carrier matrix, and non-labelled cells passed through the column and were discarded. After removing the matrix from the magnetic field, the antibody-laden cells were eluted by rinsing the now demagnetized column with buffer. The purity of this CD14-positive monocyte population obtained in this way is about 95-98%. These monocytes were incubated in a density of 10^6 cells/ml of culture medium (RPMI, supplemented with 10% foetal calf serum) with the test substances, dissolved in DMSO, at 37° C. and 5% CO2 for one hour. 10 μg/ml of LPS from E. coli were then added. After 24 hours, cell-free culture supernatants were taken and tested for the content of IL-10 and IL-12.
(§3) The concentration of IL-12 and IL-10 in the cell culture supernatants was determined by means of sandwich ELISAs using two anti-IL-12 and, respectively, IL-10 monoclonal antibodies (Biosource Europe, Fleurus, Belgium). A reference standard curve with human IL-10 and, respectively, IL-12 was included. The detection limit of the ELISAs was 15 pg/ml.

[2] = tested on: IL-12 production of LPS-activated monocytes; experiment: Inhibition of IL-12 production of LPS-activated human monocytes (sandwich ELISA of culture supernatants); type: cell-based; settings: human CD14-positive monocytes, 1 h preincubation with test substance, 10 μg/ml LPS from E. coli, 24 hours; for IC50: Monocyte
Description: as §1, §2, §3

[3] = Pharmacokinetics after intravenous administration to rats (plasma concentration/time curves); type: in vivo; settings: 10 mg/kg each, both compounds given together, estimated from the FIGURE
Description: Volumes of 2 ml/kg were administered intravenously to rats through the tail vein. After defined times, blood samples were taken from the retro-orbital plexus and plasma obtained. Plasma concentrations of both compounds were determined using valid bioanalytical methods.

SMILES | EC200 [1] [µg/mL] | IC50 [2] [µg/mL] | melting point [°C] | distribution volume [3] [L/kg] | Increase in IL-10 production EC200 [1] | Inhibition of IL-12 production IC50 [2] [µg/mL]
O=C1CC(N2C=Nc3cccc(F)c3C2)C(=O)N1 (stereo not shown) [Example 11b, 3-(5-fluoro-4H-quinazolin-3-yl)-pyrrolidine-2,5-dione] | 5.6 | 0.514 (≈ 2.08 µM) | 184 to 191 | – | – | –
O=C1CC(N2C=Nc3ccc(Cl)cc3C2)C(=O)N1 (stereo not shown) [Example 10c, 3-(6-chloro-4H-quinazolin-3-yl)-pyrrolidine-2,5-dione] | > 50 | 1.17 (≈ 4.44 µM) | 166 | – | – | –
CC1=Nc2cccc(F)c2CN1C1CC(=O)NC1=O (stereo not shown) [Example 15l, 3-(5-fluoro-2-methyl-4H-quinazolin-3-yl)-pyrrolidine-2,5-dione] | 5.6 | 2 (≈ 7.66 µM) | 185 | – | – | –
CC1=Nc2cc(F)cc(F)c2CN1C1CC(=O)NC1=O (stereo not shown) [Example 15e, 3-(5,7-difluoro-2-methyl-4H-quinazolin-3-yl)-pyrrolidine-2,5-dione] | 3 | 0.52 (≈ 1.86 µM) | 176 to 178 | – | – | –
O=C1CC(N2C=Nc3cc(F)ccc3C2)C(=O)N1 (stereo not shown) [Example 3, 3-(7-fluoro-4H-quinazolin-3-yl)-pyrrolidine-2,5-dione] | 0.4 | 0.13 (≈ 0.526 µM) | – | 0.26 | – | –
CC1=Nc2cc(F)c(F)cc2CN1C1CC(=O)NC1=O (stereo not shown) [Example 15u, 3-(6,7-difluoro-2-methyl-4H-quinazolin-3-yl)-pyrrolidine-2,5-dione] | > 50 | 1.8 (≈ 6.45 µM) | 183 to 185 | – | – | –
O=C1CC(N2C=Nc3ccccc3C2)C(=O)N1 (stereo not shown) [Example 11a, 3-(4H-quinazolin-3-yl)-pyrrolidine-2,5-dione] | 5 | 0.6 (≈ 2.62 µM) | 168 to 174 | – | – | –
O=C1CC(N2C=Nc3cccc(Cl)c3C2)C(=O)N1 (stereo not shown) [Example 10a, 3-(5-chloro-4H-quinazolin-3-yl)-pyrrolidine-2,5-dione] | 16 | 0.303 (≈ 1.15 µM) | 218 | – | – | –
CC1=Nc2ccccc2CN1C1CC(=O)NC1=O (stereo not shown) [Example 15b, 3-(2-methyl-4H-quinazolin-3-yl)-pyrrolidine-2,5-dione] | > 50 | 4 (≈ 16.5 µM) | 72 to 75 | – | – | –
O=C1CC(N2C=Nc3cc(F)cc(Cl)c3C2)C(=O)N1 (stereo not shown) [Example 1, 3-(5-chloro-7-fluoro-4H-quinazolin-3-yl)-pyrrolidine-2,5-dione] | 4 | 1.5 (≈ 5.33 µM) | – | – | – | –
COc1cccc2c1CN(C1CC(=O)NC1=O)C=N2 (stereo not shown) [Example 12a, 3-(5-methoxy-4H-quinazolin-3-yl)-pyrrolidine-2,5-dione] | > 50 | 1.8 (≈ 6.94 µM) | – | – | – | –
O=C1CC(N2C(=O)c3ccccc3C2=O)C(=O)N1 (stereo not shown) [XXVIII = C1, 2-(2,5-dioxo-pyrrolidin-3-yl)-isoindole-1,3-dione, reference compound] | – | > 50 | – | – | no increase | –
CC1=Nc2cc(F)cc(Cl)c2CN1C1CC(=O)NC1=O (stereo not shown) [Example 15j, 3-(5-chloro-7-fluoro-2-methyl-4H-quinazolin-3-yl)-pyrrolidine-2,5-dione] | 5 | 0.521 (≈ 1.76 µM) | 179 to 181 | – | – | –
COc1ccc2c(c1)N=CN(C1CC(=O)NC1=O)C2 (stereo not shown) [Example 9b, 3-(7-methoxy-4H-quinazolin-3-yl)-pyrrolidine-2,5-dione] | 16 | 15 (≈ 57.9 µM) | 174 to 184 | – | – | –
O=C1CC(N2C=Nc3cc(Cl)ccc3C2)C(=O)N1 (stereo not shown) [Example 8g, 3-(7-chloro-4H-quinazolin-3-yl)-pyrrolidine-2,5-dione] | 1 | 0.62 (≈ 2.35 µM) | 194 | – | – | –
CC1=Nc2cc(Cl)ccc2CN1C1CC(=O)NC1=O (stereo not shown) [Example 15bb, 3-(7-chloro-2-methyl-4H-quinazolin-3-yl)-pyrrolidine-2,5-dione] | 5.6 | 0.419 (≈ 1.51 µM) | 153 to 155 | – | – | –
CC1=Nc2cccc(Cl)c2CN1C1CC(=O)NC1=O (stereo not shown) [Example 15i, 3-(5-chloro-2-methyl-4H-quinazolin-3-yl)-pyrrolidine-2,5-dione] | 15 | 0.884 (≈ 3.18 µM) | 163 to 170 | – | – | –
O=C1CC(N2C=Nc3cc4ccccc4cc3C2)C(=O)N1 (stereo not shown) [Example 8c, 3-(4H-benzo[q]quinazolin-3-yl)-pyrrolidine-2,5-dione] | – | – | – | – | >50000 ng/mL | 4
O=C1CCC(N2C(=O)c3ccccc3C2=O)C(=O)N1 (stereo not shown) [Thalidomide, thalidomide, reference compound] | 20 | 0.07 (≈ 0.271 µM) | – | – | – | –
Cc1cccc2c1CN(C1CC(=O)NC1=O)C=N2 (stereo not shown) [Example 8b, 3-(5-methyl-4H-quinazolin-3-yl)-pyrrolidine-2,5-dione] | > 50 | 7.3 (≈ 30 µM) | 221 to 224 | – | – | –
